This passage reports TGI and GI50 results from PubChem BioAssay (NCI).

Holding throughout (experiment): NCI anticancer screen, dose series, 48 h
Test [1] concerns ACHN renal.
Test [2] concerns SW-620 colon.
In test [3] the test system is MOLT-4 leukemia.
The test system of test [4] is RXF 393 renal.
For test [5], the system named is A549 NSCLC.
In test [6] the test system is HOP-62 NSCLC.
Test [7] deals with SK-MEL-28 melanoma.
Test [8] has as its system RPMI-8226 leukemia.
Test [9] concerns COLO 205 colon.
Test [10] concerns HCT-15 colon.

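Exposure lasted 48 hours, with cells grown in 96-well plates and compounds tested at five concentrations. Abbreviation: GI50, concentration required for 50% inhibition of growth. TGI: total growth inhibition.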 Where only a bound is given, the exact number is not on record here.

With `COC(=O)N/N=C(\C)C(CN(C)C)C(c1ccccc1)c1c(O)c2ccccc2oc1=O` (centres undefined), the TGI in test [1], in [2], in test [3], in [4], in [5] and in test [6] was > 100 µM in each case. Moreover, the TGI in test [7], in [8], in test [9] and in [10] was > 100 µM each time.

For `CN1CCN(CCCOc2cccc3nc(Nc4ccc(F)c(F)c4)ccc23)CC1`, the GI50 in test [1] is 4.57 µM; in test [2], 1.82 µM; in test [3], 1.31 µM; in test [4], 2.11 µM; in test [5] it was 3.5 µM; in [6], 1.25 µM. The GI50 in test [7] was 1.08 µM; in test [8] it was 5.2 µM; in test [9], 0.646 µM; in [10], 0.956 µM. In addition, the TGI in test [1] was 9.17 µM; in [2], 10.5 µM; in [3] it was 5.66 µM; in [4], 6.57 µM; in test [5], 8.15 µM; in test [6], 5.34 µM. The TGI was determined as 3.63 µM in [7], 12.3 µM in [8], 1.33 µM in test [9] and 3.42 µM in test [10].

For `Nc1ccccc1C(=O)NC(=O)Nc1ccc(Oc2ncc(Br)cn2)c(Cl)c1`, the TGI amounted to 30.8 µM in test [1]; 26.3 µM in test [2]; 33.9 µM in [3]; 0.458 µM in test [4]; 13.4 µM in test [5]; 4.03 µM in test [6]. Also, the TGI in [7] is 18.3 µM; in test [8], 29.6 µM; in test [9] it was 0.421 µM; in [10], 22.6 µM. In addition, the GI50 was 0.0181 µM in test [2] and 0.0511 µM in test [3].

Consider `COc1ccc2c(c1)CCc1c(CO)c(COC(=O)NC(C)C)n(C)c1-2`, for which the TGI is 53.1 µM in test [1]; 19.3 µM in test [2]; 8.57 µM in test [3]; 38.7 µM in [4]; > 78.5 µM in test [5]; 75.6 µM in test [6]. Also, the TGI stood at 28.6 µM in [7], 7.05 µM in test [8], 4.68 µM in test [9] and 60.8 µM in [10].

On to `CC(C)=C1CCC(CN2CCOCC2)C1=O` (centres undefined), for which the TGI in test [1] was 23 µM; in test [2], 4.26 µM; in test [3], 5.54 µM; in test [4], 5.47 µM; in test [5], 43.1 µM; in test [6], > 93.5 µM. Further, the TGI in test [7] was 29.1 µM; in test [8] it was 12.5 µM; in test [9], 16.9 µM; in test [10], 22 µM.

Consider `COc1ccc2nc3cccc([N+](=O)[O-])c3c(NCCNCCN(C)C)c2c1`, for which the GI50 in test [1] was 0.0414 µM; in test [2], 0.0486 µM; in [3], 0.022 µM; in [4], 0.0342 µM; in [5] it was 0.0712 µM; in test [6] it was 0.183 µM. Moreover, the GI50 in test [7] is 0.62 µM; in [8], 0.0208 µM; in test [9] it was 0.0277 µM; in [10] it was 0.131 µM. The TGI in test [1] worked out at 0.439 µM; in [2] it was 2.27 µM; in [3], 0.192 µM; in test [4], 0.122 µM; in test [5] it was 0.518 µM; in [6], 0.698 µM. In addition, the TGI in [7] stood at 3.09 µM; in [8], 0.106 µM; in test [9], 0.0949 µM.

Regarding `COc1cccc2nc3c(C(=O)NCCN(C)C)cccc3nc12`, the TGI in [1] is > 100 µM; in test [2] it was > 57.7 µM; in [3], 15.1 µM; in test [4] it was 26.7 µM; in test [5], > 100 µM; in [6], 38.2 µM. Further, the TGI in test [7] is 28.8 µM; in test [8] it was > 63.8 µM; in test [9], 28.8 µM; in test [10], 80.1 µM.

`CCOC(=O)C#Cc1c(C(=O)OCC)nnn1[C@@H]1O[C@H](CO)[C@H]2OC3(CCCCC3)O[C@H]21`: the GI50 in test [1] is 1.8 µM; in test [2], 1.81 µM; in test [3] it was 1.95 µM; in [4], 1.8 µM; in [5] it was 19.9 µM; in test [6] it was 17.7 µM. Also, the GI50 in test [7] was 2.06 µM; in test [8], 3.07 µM; in test [9], 1.98 µM; in test [10], 1.87 µM. The TGI in test [1] was found to be 3.41 µM; in test [2] it was 3.64 µM; in [3] it was 5.42 µM; in test [4], 3.46 µM; in [5] it was 35.8 µM; in [6], 33.7 µM. The TGI in [7] was 4.51 µM; in test [8] it was 7.97 µM; in test [9], 4.06 µM; in [10] it was 3.53 µM.

Regarding `CCOc1ccc(C(C)=O)cc1NC(=O)c1cccc(-c2nnn(CC)n2)c1`, the GI50 in test [1] was 0.748 µM; in [2], 0.492 µM; in test [3] it was 0.682 µM; in test [4], 0.61 µM; in [5], 0.892 µM; in [6], 0.39 µM. In addition, the GI50 in test [7] was 4.75 µM; in test [8] it was 1.22 µM; in test [9], 0.395 µM; in [10] it was 0.419 µM. Besides, the TGI was 70.3 µM in test [1]; > 100 µM in test [2]; > 100 µM in test [3]; 11.6 µM in [4]; > 100 µM in [5]; 18.1 µM in [6]. Further, the TGI in [7] is > 100 µM; in test [8], > 100 µM; in [9] it was 1.93 µM; in test [10], > 100 µM.

For `CCC(C)(O)c1cn(-c2ccc(S(=O)(=O)O)cc2)nn1` (centres undefined), the TGI in test [1], in [2], in test [3], in test [4], in test [5] and in test [6] was > 100 µM each time. The TGI in test [7], in [8], in test [9] and in test [10] was > 100 µM each time.

In the case of `O=C(NC(=O)c1cn(CCN2CCN(C(=O)NCCCCCCNC(=O)N3CCN(CCn4cc(C(=O)NC(=O)OCc5ccccc5)c(=O)[nH]c4=O)CC3)CC2)c(=O)[nH]c1=O)OCc1ccccc1`, the TGI in [1], in [2], in test [3], in test [4], in [5] and in [6] was > 100 µM each time. Also, the TGI in test [7], in [8], in [9] and in [10] was > 100 µM each time.

In the case of `CC/C(Cc1ccccc1)=C(/c1ccc(O)cc1)c1ccc(OCCN2CCCC2)cc1`, the GI50 was 1.83 µM in test [1]; 1.84 µM in test [2]; 1.57 µM in test [3]; 1.56 µM in [4]; 2.05 µM in test [5]; 1.9 µM in test [6]. Besides, the GI50 was 1.72 µM in test [7], 2.1 µM in test [8], 1.76 µM in [9] and 1.51 µM in test [10]. Also, the TGI was found to be 3.39 µM in test [1]; 3.63 µM in test [2]; 3.63 µM in test [3]; 3.13 µM in test [4]; 3.82 µM in [5]; 3.58 µM in [6]. Besides, the TGI in test [7] is 3.42 µM; in [8] it was 4.67 µM; in test [9], 3.39 µM; in [10], 3.08 µM.

Consider `CCN(CC)c1ccc(/C=N/NC(=O)CSc2nc3ccccc3c(=O)n2Cc2ccc(S(N)(=O)=O)cc2)c(O)c1`, for which the GI50 is 1.58 µM in test [1]; 0.949 µM in [2]; 0.372 µM in test [3]; 2.5 µM in test [4]; 1.57 µM in test [5]; 0.961 µM in [6]. The GI50 is 1.62 µM in [7], 0.521 µM in [8], 1.51 µM in test [9] and 3.62 µM in test [10]. In addition, the TGI in [1], in [2], in test [3], in test [4], in test [5] and in test [6] was > 100 µM each time. The TGI was > 100 µM in [7], 4.85 µM in test [8], > 100 µM in [9] and > 100 µM in test [10].

`Cc1ccc(O)c(NC2=C(Cl)C(=O)N(Cc3ccccc3)C2=O)c1`: the GI50 in test [1] was 32.4 µM; in test [2], 32.5 µM; in [3], 1.55 µM; in test [4], 15 µM; in [5], 27.1 µM; in [6] it was 25.4 µM. The GI50 in test [7] was 22.3 µM; in test [8] it was 7.7 µM; in [9] it was 28.4 µM; in test [10], 25.3 µM. In addition, the TGI was > 100 µM in test [1]; > 100 µM in [2]; 74.2 µM in test [3]; 39.3 µM in test [4]; 91.3 µM in [5]; 72.5 µM in [6]. Further, the TGI in [7] is 54.1 µM; in test [8], 36.6 µM; in [9], > 100 µM; in test [10] it was 72.6 µM.

On to `CCCCCCCCCCOC(=O)c1cc[n+](C)cc1`, for which the TGI in test [1] is 33.2 µM; in test [2], 34.5 µM; in [3], 37.5 µM; in test [4], 34.3 µM; in test [5], 31 µM; in [6] it was 30.6 µM. The TGI was found to be 31.3 µM in [7], 38.2 µM in test [8], 30.3 µM in test [9] and 29.5 µM in test [10].

For `NCCOc1ncccc1/C=C1\c2ccccc2-c2ccc([N+](=O)[O-])cc21`, the GI50 in test [1] was 0.0235 µM; in test [2], 0.0725 µM; in test [3], < 0.01 µM; in test [4], 0.171 µM; in [5], < 0.01 µM; in [6], 0.0261 µM. The GI50 in [7] was 0.241 µM; in test [8] it was 0.0383 µM; in [9] it was 0.137 µM; in test [10], 0.0266 µM. Besides, the TGI was determined as 0.119 µM in test [1]; 0.834 µM in test [2]; 0.0746 µM in [3]; 0.443 µM in test [4]; 0.204 µM in [5]; 0.133 µM in [6]. Moreover, the TGI is 1.06 µM in test [7], 0.317 µM in [8], 0.343 µM in test [9] and 0.871 µM in [10].

Consider `NC(CSC(c1ccccc1)(c1ccccc1)c1ccc(F)cc1)C(=O)O` (centres undefined), for which the GI50 in test [1] is 5.04 µM; in test [2], 0.43 µM; in test [3], 1.37 µM; in test [4], 0.414 µM; in [5], 0.35 µM; in test [6], 3.04 µM. Also, the GI50 is 6.04 µM in test [7], 0.279 µM in [8], 0.231 µM in [9] and 0.511 µM in test [10]. Besides, the TGI in test [1] was > 100 µM; in test [2], > 100 µM; in test [3], > 46.9 µM; in test [5] it was > 31.7 µM; in test [6], > 85.6 µM; in test [7] it was > 100 µM. The TGI in [8] was 12.7 µM; in [9], 0.667 µM; in test [10] it was > 100 µM.

Regarding `CCC[CH2][Sn]([CH2]CCC)([CH2]CCC)[O]C(=O)C(OC)c1ccccc1` (centres undefined), the GI50 was 0.129 µM in [1]; 0.112 µM in test [2]; 0.0561 µM in test [4]; 0.117 µM in test [5]; 0.135 µM in test [6]; 0.137 µM in test [7]. The GI50 in [8] is 0.0206 µM; in test [9], 0.134 µM; in [10], 0.0864 µM. Moreover, the TGI in test [1] is 0.257 µM; in test [2], 0.236 µM; in test [3] it was 0.835 µM; in [4], 0.194 µM; in test [5] it was 0.265 µM; in [6] it was 0.27 µM. Besides, the TGI was found to be 0.27 µM in test [7], 0.306 µM in test [8], 0.264 µM in test [9] and 0.211 µM in test [10].
